Laboratory results taken from PubChem BioAssay (NCI).
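At the GI50, growth is halved. TGI denotes the concentration required for complete inhibition of growth.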

Experiments:
Assay in all cases: NCI-60 cell line screen, 384-well format
786-0 renal = test system: 786-0 renal
OVCAR-3 ovarian = test system: OVCAR-3 ovarian
MDA-MB-468 breast = test system: MDA-MB-468 breast
CAKI-1 renal = test system: CAKI-1 renal
HCT-15 colon = test system: HCT-15 colon
K-562 leukemia = test system: K-562 leukemia
SF-295 CNS = test system: SF-295 CNS
SF-268 CNS = test system: SF-268 CNS
SK-MEL-2 melanoma = test system: SK-MEL-2 melanoma
IGROV1 ovarian = test system: IGROV1 ovarian
SR leukemia = test system: SR leukemia
A549 NSCLC = test system: A549 NSCLC
UACC-62 melanoma = test system: UACC-62 melanoma
MCF7 breast = test system: MCF7 breast
NCI-H460 NSCLC = test system: NCI-H460 NSCLC
RPMI-8226 leukemia = test system: RPMI-8226 leukemia
HT29 colon = test system: HT29 colon
SW-620 colon = test system: SW-620 colon
RXF 393 renal = test system: RXF 393 renal
SN12C renal = test system: SN12C renal
T-47D breast = test system: T-47D breast
HOP-62 NSCLC = test system: HOP-62 NSCLC
SK-OV-3 ovarian = test system: SK-OV-3 ovarian
NCI/ADR-RES ovarian = test system: NCI/ADR-RES ovarian
NCI-H322M lung = test system: NCI-H322M lung
MOLT-4 leukemia = test system: MOLT-4 leukemia
HCT-116 colon = test system: HCT-116 colon
SK-MEL-5 melanoma = test system: SK-MEL-5 melanoma
NCI-H226 lung = test system: NCI-H226 lung
UO-31 renal = test system: UO-31 renal
UACC-257 melanoma = test system: UACC-257 melanoma
OVCAR-8 ovarian = test system: OVCAR-8 ovarian
HL-60(TB) leukemia = test system: HL-60(TB) leukemia
COLO 205 colon = test system: COLO 205 colon
ACHN renal = test system: ACHN renal
MALME-3M melanoma = test system: MALME-3M melanoma
HCC-2998 colon = test system: HCC-2998 colon
A498 renal = test system: A498 renal
U251 glioblastoma = test system: U251 glioblastoma
DU-145 prostate = test system: DU-145 prostate
HOP-92 NSCLC = test system: HOP-92 NSCLC
MDA-MB-435 melanoma = test system: MDA-MB-435 melanoma
TK-10 renal = test system: TK-10 renal
OVCAR-4 ovarian = test system: OVCAR-4 ovarian
SK-MEL-28 melanoma = test system: SK-MEL-28 melanoma
OVCAR-5 ovarian = test system: OVCAR-5 ovarian
M14 melanoma = test system: M14 melanoma
BT-549 breast = test system: BT-549 breast
LOX IMVI melanoma = test system: LOX IMVI melanoma
SNB-19 CNS = test system: SNB-19 CNS
CCRF-CEM leukemia = test system: CCRF-CEM leukemia
MDA-MB-231 breast = test system: MDA-MB-231 breast
PC-3 prostate = test system: PC-3 prostate
SF-539 CNS = test system: SF-539 CNS
NCI-H522 lung = test system: NCI-H522 lung
NCI-H23 lung = test system: NCI-H23 lung
KM12 colon = test system: KM12 colon

For `O=P1(S)OC[C@H]2O[C@@H]3[C@H](F)[C@@H]2OP(O)(=S)OC[C@H]2O[C@H]([C@H](F)[C@@H]2O1)n1cnc2c(ncnc21)NC/C=C/CNc1ncnc2c1ncn23` (some centres undefined), the GI50 ([…]-0 renal) was over 100 µM, the TGI (786-0 renal) was over 100 µM and the GI50 (OVCAR-3 ovarian) was 4.99 µM. The TGI (OVCAR-3 ovarian) was 38.8 µM, the GI50 (MDA-MB-468 breast) was 2.24 µM and the TGI (MDA-MB-468 breast) was 7.62 µM. For the same compound, the GI50 (CAKI-1 renal) was over 100 µM, the TGI (CAKI-1 renal) was over 100 µM and the GI50 (HCT-15 colon) was over 100 µM. It also gave a TGI (HCT-15 colon) of over 100 µM, a GI50 (K-562 leukemia) of over 100 µM and a TGI (K-562 leukemia) of over 100 µM. It also gave a GI50 (SF-295 CNS) of over 100 µM, a TGI (SF-295 CNS) of over 100 µM and a GI50 (SF-268 CNS) of over 100 µM. The TGI (SF-268 CNS) was over 100 µM, the GI50 (SK-MEL-2 melanoma) was 2.82 µM and the TGI (SK-MEL-2 melanoma) was 52 µM. The GI50 (IGROV1 ovarian) was over 100 µM, the TGI (IGROV1 ovarian) was over 100 µM and the GI50 (SR leukemia) was 0.0295 µM. The TGI (SR leukemia) was 0.101 µM, the GI50 (A549 NSCLC) was over 100 µM and the TGI (A549 NSCLC) was over 100 µM. The GI50 (UACC-62 melanoma) was over 100 µM, the TGI (UACC-62 melanoma) was over 100 µM and the GI50 (MCF7 breast) was over 100 µM. It also gave a TGI (MCF7 breast) of over 100 µM, a GI50 (NCI-H460 NSCLC) of over 100 µM and a TGI (NCI-H460 NSCLC) of over 100 µM. For the same compound, the GI50 (RPMI-8226 leukemia) was 22.1 µM, the TGI (RPMI-8226 leukemia) was over 100 µM and the GI50 (HT29 colon) was 19.2 µM. It also gave a TGI (HT29 colon) of over 100 µM, a GI50 (SW-620 colon) of over 100 µM and a TGI (SW-620 colon) of over 100 µM. The GI50 (RXF 393 renal) was 0.0445 µM, the TGI (RXF 393 renal) was 19.7 µM and the GI50 (SN12C renal) was over 100 µM. The TGI (SN12C renal) was over 100 µM, the GI50 (T-47D breast) was over 100 µM and the TGI (T-47D breast) was over 100 µM. The GI50 (HOP-62 NSCLC) was over 100 µM, the TGI (HOP-62 NSCLC) was over 100 µM and the GI50 (SK-OV-3 ovarian) was 24.3 µM. For the same compound, the TGI (SK-OV-3 ovarian) was over 100 µM, the GI50 (NCI/ADR-RES ovarian) was over 100 µM and the TGI (NCI/ADR-RES ovarian) was over 100 µM. It also gave a GI50 (NCI-H322M lung) of over 100 µM, a TGI (NCI-H322M lung) of over 100 µM and a GI50 (MOLT-4 leukemia) of 5.67 µM. It also gave a TGI (MOLT-4 leukemia) of 20.6 µM, a GI50 (HCT-116 colon) of over 100 µM and a TGI (HCT-116 colon) of over 100 µM. The GI50 (SK-MEL-5 melanoma) was over 100 µM, the TGI (SK-MEL-5 melanoma) was over 100 µM and the GI50 (NCI-H226 lung) was 0.0932 µM. It also gave a TGI (NCI-H226 lung) of 0.361 µM, a GI50 (UO-31 renal) of over 100 µM and a TGI (UO-31 renal) of over 100 µM. It also gave a GI50 (UACC-257 melanoma) of 0.151 µM, a TGI (UACC-257 melanoma) of 19.3 µM and a GI50 (OVCAR-8 ovarian) of over 100 µM. For the same compound, the TGI (OVCAR-8 ovarian) was over 100 µM, the GI50 (HL-60(TB) leukemia) was 0.189 µM and the TGI (HL-60(TB) leukemia) was 0.4 µM. The GI50 (COLO 205 colon) was 48.6 µM, the TGI (COLO 205 colon) was over 100 µM and the GI50 (ACHN renal) was over 100 µM. The TGI (ACHN renal) was over 100 µM, the GI50 (MALME-3M melanoma) was over 100 µM and the TGI (MALME-3M melanoma) was over 100 µM. It also gave a GI50 (HCC-2998 colon) of over 100 µM, a TGI (HCC-2998 colon) of over 100 µM and a GI50 (A498 renal) of over 100 µM. For the same compound, the TGI (A498 renal) was over 100 µM, the GI50 (U251 glioblastoma) was over 100 µM and the TGI (U251 glioblastoma) was over 100 µM. It also gave a GI50 (DU-145 prostate) of over 100 µM, a TGI (DU-145 prostate) of over 100 µM and a GI50 (HOP-92 NSCLC) of over 100 µM. The TGI (HOP-92 NSCLC) was over 100 µM, the GI50 (MDA-MB-435 melanoma) was 2.97 µM and the TGI (MDA-MB-435 melanoma) was 46 µM. The GI50 (TK-10 renal) was over 100 µM, the TGI (TK-10 renal) was over 100 µM and the GI50 (OVCAR-4 ovarian) was 11.3 µM. The TGI (OVCAR-4 ovarian) was over 100 µM, the GI50 (SK-MEL-28 melanoma) was over 100 µM and the TGI (SK-MEL-28 melanoma) was over 100 µM. It also gave a GI50 (OVCAR-5 ovarian) of over 100 µM, a TGI (OVCAR-5 ovarian) of over 100 µM and a GI50 (M14 melanoma) of over 100 µM. The TGI (M14 melanoma) was over 100 µM, the GI50 (BT-549 breast) was 9.28 µM and the TGI (BT-549 breast) was over 100 µM. It also gave a GI50 (LOX IMVI melanoma) of over 100 µM, a TGI (LOX IMVI melanoma) of over 100 µM and a GI50 (SNB-19 CNS) of over 100 µM. It also gave a TGI (SNB-19 CNS) of over 100 µM, a GI50 (CCRF-CEM leukemia) of 39.2 µM and a TGI (CCRF-CEM leukemia) of over 100 µM. It also gave a GI50 (MDA-MB-231 breast) of over 100 µM, a TGI (MDA-MB-231 breast) of over 100 µM and a GI50 (PC-3 prostate) of over 100 µM. For the same compound, the TGI (PC-3 prostate) was over 100 µM, the GI50 (SF-539 CNS) was 7.46 µM and the TGI (SF-539 CNS) was over 100 µM. For the same compound, the GI50 (NCI-H522 lung) was 7.35 µM, the TGI (NCI-H522 lung) was 44.2 µM and the GI50 (NCI-H23 lung) was over 100 µM. For the same compound, the TGI (NCI-H23 lung) was over 100 µM, the GI50 (KM12 colon) was 51.2 µM and the TGI (KM12 colon) was over 100 µM.
